Assay results from publication PMC11274883, “Anticancer Effect of Pt^[sequence], Pt^II5MESS, Pt^II56MESS and Their Platinum(IV)-Dihydroxy Derivatives against Triple-Negative Breast Cancer and Cisplatin-Resistant Colorectal Cancer” (Cancers, 2024).

Assays:
Assay type in all cases: cell-based
HT29 cells [1] = experiment: TMRE mitochondrial membrane potential assay; conditions: complexes at IC50, FCCP 20 µM
Outline: (§1)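 Cells treated with each complex at its IC50 concentration for 24, 48 or 72 h, then stained with 1 µM TMRE for 30 min and washed before fluorescence scanning. Three independent experiments in triplicate.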

MDA−MB−231 cells [2] = experiment: TMRE mitochondrial membrane potential assay; conditions: complexes at IC50, FCCP 20 µM
Outline: as §1

HT29 cells [3] = experiment: Western blot protein expression; conditions: HT29, IC50, 72 h
Outline: (§2)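 Cells were lysed in RIPA buffer with orthovanadate, and 20 µg protein was run on SDS-PAGE, transferred to PVDF and probed for proliferation, apoptosis, microtubule and autophagy markers. ECL band intensities were normalised to GAPDH and then to untreated control. Three independent experiments were run per marker.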

MDA−MB−231 cells [4] = experiment: Western blot protein expression; conditions: MDA−MB−231, IC50, 72 h
Outline: as §2

[5] = representative blot Figure S30G
[6] = representative blot Figure S30H

N[C@H]1CCCC[C@@H]1N.O=[N+]([O-])[O-].O=[N+]([O-])[O-].[Pt+2].c1cnc2c(c1)ccc1cccnc12 [[Pt(1,10-phenanthroline)(1S,2S-diaminocyclohexane)](NO3)2]
MtMp (mitochondrial membrane potential) (HT29 cells [1]; HT29, 24 h): 321.85 RFU
MtMp (mitochondrial membrane potential) (HT29 cells [1]; HT29, 48 h): 256.63 RFU
MtMp (mitochondrial membrane potential) (HT29 cells [1]; HT29, 72 h): 236.73 RFU
MtMp (mitochondrial membrane potential) (MDA−MB−231 cells [2]; MDA−MB−231, 24 h): 258.17 RFU
MtMp (mitochondrial membrane potential) (MDA−MB−231 cells [2]; MDA−MB−231, 48 h): 218.19 RFU
MtMp (mitochondrial membrane potential) (MDA−MB−231 cells [2]; MDA−MB−231, 72 h): 169.95 RFU
β-actin/GAPDH normalized to control (1) (HT29 cells [3]; representative blot Figure S28A): 0.1267
β-tubulin/GAPDH normalized to control (1) (HT29 cells [3]; representative blot Figure S28B): 0.232
α-tubulin/GAPDH normalized to control (1) (HT29 cells [3]; representative blot Figure S28C): 0.09086
p-AKT/AKT/GAPDH normalized to control (1) (HT29 cells [3]; representative blot Figure S29A): 0.09219
p-ERK/ERK/GAPDH normalized to control (1) (HT29 cells [3]; representative blot Figure S29B): 0.9509
p53/GAPDH normalized to control (1) (HT29 cells [3]; representative blot Figure S29C): 4.791
p21/GAPDH normalized to control (1) (HT29 cells [3]; representative blot Figure S29D): 3.18
Bax/GAPDH normalized to control (1) (HT29 cells [3]; representative blot Figure S30A): 3.407
Bcl2/GAPDH normalized to control (1) (HT29 cells [3]; representative blot Figure S30B): 0.2872
Cyt C/GAPDH normalized to control (1) (HT29 cells [3]; representative blot Figure S30C): 1.692
Procaspase 8/GAPDH normalized to control (1) (HT29 cells [3]; representative blot Figure S30D): 0.1633
Cleaved BID/GAPDH normalized to control (1) (HT29 cells [3]; representative blot Figure S30E): 1.611
Procaspase 9/GAPDH normalized to control (1) (HT29 cells [3]; representative blot Figure S30F): 0.1981
Cleaved caspase 3/GAPDH normalized to control (1) (HT29 cells [3]; [5]): 17.46
Procaspase 3/GAPDH normalized to control (1) (HT29 cells [3]; [5]): 0.4874
Cleaved PARP-1/GAPDH normalized to control (1) (HT29 cells [3]; [6]): 8.496
PARP-1/GAPDH normalized to control (1) (HT29 cells [3]; [6]): 0.2612
Beclin1/GAPDH normalized to control (1) (HT29 cells [3]; representative blot Figure S31A): 5.324
ATG5/GAPDH normalized to control (1) (HT29 cells [3]; representative blot Figure S31B): 0.9428
ATG16L1/GAPDH normalized to control (1) (HT29 cells [3]; representative blot Figure S31C): 3.844
ATG9A/GAPDH normalized to control (1) (HT29 cells [3]; representative blot Figure S31D): 0.465
ATG4B/GAPDH normalized to control (1) (HT29 cells [3]; representative blot Figure S31E): 0.6844
LC3B/GAPDH normalized to control (1) (HT29 cells [3]; representative blot Figure S31F): 2.121
β-actin/GAPDH normalized to control (1) (MDA−MB−231 cells [4]; representative blot Figure S24A): 0.4744
β-tubulin/GAPDH normalized to control (1) (MDA−MB−231 cells [4]; representative blot Figure S24B): 1.15
α-tubulin/GAPDH normalized to control (1) (MDA−MB−231 cells [4]; representative blot Figure S24C): 0.9355
p-AKT/AKT/GAPDH normalized to control (1) (MDA−MB−231 cells [4]; representative blot Figure S25A): 0.6042
p-ERK/ERK/GAPDH normalized to control (1) (MDA−MB−231 cells [4]; representative blot Figure S25B): 0.6771
p53/GAPDH normalized to control (1) (MDA−MB−231 cells [4]; representative blot Figure S25C): 1.105
p21/GAPDH normalized to control (1) (MDA−MB−231 cells [4]; representative blot Figure S25D): 1.812
Bax/GAPDH normalized to control (1) (MDA−MB−231 cells [4]; representative blot Figure S26A): 1.161
Bcl2/GAPDH normalized to control (1) (MDA−MB−231 cells [4]; representative blot Figure S26B): 0.8361
Cytochrome C/GAPDH normalized to control (1) (MDA−MB−231 cells [4]; representative blot Figure S26C): 1.827
Procaspase 8/GAPDH normalized to control (1) (MDA−MB−231 cells [4]; representative blot Figure S26D): 0.5195
Cleaved BID/GAPDH normalized to control (1) (MDA−MB−231 cells [4]; representative blot Figure S26E): 13.39
Procaspase 9/GAPDH normalized to control (1) (MDA−MB−231 cells [4]; representative blot Figure S26F): 0.2042
Procaspase 3/GAPDH normalized to control (1) (MDA−MB−231 cells [4]; representative blot Figure S26G): 0.3207
PARP-1/GAPDH normalized to control (1) (MDA−MB−231 cells [4]; representative blot Figure S26H): 0.7775
Beclin1/GAPDH normalized to control (1) (MDA−MB−231 cells [4]; representative blot Figure S27A): 1.911
ATG5/GAPDH normalized to control (1) (MDA−MB−231 cells [4]; representative blot Figure S27B): 0.7762
ATG16L1/GAPDH normalized to control (1) (MDA−MB−231 cells [4]; representative blot Figure S27C): 0.6758
ATG9A/GAPDH normalized to control (1) (MDA−MB−231 cells [4]; representative blot Figure S27D): 0.361
ATG4B/GAPDH normalized to control (1) (MDA−MB−231 cells [4]; representative blot Figure S27E): 1.546
LC3B/GAPDH normalized to control (1) (MDA−MB−231 cells [4]; representative blot Figure S27F): 0.9969
